Paper PMC3944524, “Antimicrobial Activity of the Marine Alkaloids, Clathrodin and Oroidin, and Their Synthetic Analogues” (Marine Drugs, 2014)
In brackets after ≈: the same amount, converted by molar mass.

How the values were obtained:
[1] = Mammalian cell cytotoxicity, ATP assay (CellTiter-Glo); assay type: cell-based, human; conditions: human, Huh-7 cells, ATP assay, 24 h exposure, average of two dose-response experiments
Experimental: Huh-7 cells (originating from human hepatocellular carcinoma) were kindly provided by Prof. Ralf Bartenschlager (University of Heidelberg, Heidelberg, Germany). […] The cells were incubated at 37 °C in a humidified atmosphere with 5% CO2. The effect of the most promising compounds on the metabolic activity of Huh-7 hepatocytes was assessed by intracellular ATP quantitation (Promega’s CellTiter-Glo Cell Viability Assay, Madison, WI, USA). In brief, cells were seeded at 20,000 cells/well on white-walled 96-well microplates (ViewPlate, PerkinElmer Inc., Wellesley, MA, USA) and incubated at 37 °C, 5% CO2 and 95% humidity overnight and then exposed to the compounds for 24 h. Following the exposure, cells were washed with 100 µL PBS, and 50 µL of fresh assay media and 50 µL of the CellTiter-Glo reagent were added into the wells. After 2 min of shaking and 10 min incubation at rt, luminometric signal was measured using a Varioskan Flash plate reader (Thermo Fisher Scientific, Vantaa, Finland). […] The IC50 values were calculated by fitting the data into sigmoidal dose-response curves with the Origin software.

[2] = test system: Staphylococcus aureus (ATCC 25923); test: Broth microdilution antimicrobial assay, Staphylococcus aureus; assay type: cell-based; conditions: for SI (selectivity index): S. aureus MIC50 vs Huh-7 cytotoxicity IC50; for MIC90 / MIC50: Staphylococcus aureus; for MIC90: ATCC25923, 24 h; for MIC50: ATCC25923, S. aureus ATCC 25923, 24 h, sigmoidal curve fitting
Experimental: (§1) Clinical control strains of Enterococcus faecalis (Gram-positive, ATCC 29212), Staphylococcus aureus (Gram-positive, ATCC 25923), Escherichia coli (Gram-negative, ATCC 25922) and a fungal strain, Candida albicans (ATCC 90028), were obtained from Microbiologics Inc. (St. Cloud, MN, USA) and used for the antimicrobial screening. Bacterial strains were grown on Mueller Hinton II agar (MHA, Becton Dickinson, Franklin Lakes, NJ, USA) […] Mueller Hinton II broth (MHB, Becton Dickinson, Franklin Lakes, NJ, USA) and the Candida strain on Sabouraud dextrose agar (SDA, Becton Dickinson, Franklin Lakes, NJ, USA) plates. Media were prepared in MilliQ water, according to the manufacturer's instructions, and autoclaved at 121 °C for 15 min. […] The Candida strain was grown on SDA plates at 28 °C for 18-24 h and suspended into sterile 0.9% saline for the assay. Antimicrobial assays were performed by the broth microdilution method following the guidelines of the Clinical and Laboratory Standards Institute (CLSI) and European Committee on Antimicrobial Susceptibility Testing (EUCAST). […] The Candida suspension was prepared in sterile 0.9% saline solution, and the suspension was diluted in RPMI-1640 media (with L-glutamine, without NaHCO3 and supplemented with 2% glucose and 0.165 M MOPS, buffered to pH 7; Lonza, Basel, Switzerland) to yield a final inoculum of 2.5 × 10^3 CFU/mL in the assay. Assays were carried out in clear 96-well microtiter plates and initiated by dispensing an equal volume of microbial suspension and sample solution diluted into the assay medium. The plates were incubated for 24 h at 37 °C (for Candida, the incubation was at 28 °C for 48 h) with agitation. […] The antimicrobial activity of the samples was calculated from the absorbance values by comparing to untreated controls and expressed as the percentage inhibition of growth. Reference antibiotics were used as positive controls on every assay plate (see Figure 2 for details). […] MIC50 values were determined from the dose-response results by sigmoidal curve fitting with Origin software (OriginLab, Corp., Wellesley Hills, MA, USA).

[3] = test system: Enterococcus faecalis (ATCC 29212); test: Broth microdilution antimicrobial assay, Enterococcus faecalis; assay type: cell-based; conditions: for SI (selectivity index): E. faecalis MIC50 vs Huh-7 cytotoxicity IC50; for MIC90 / MIC50: Enterococcus faecalis; for MIC90: ATCC29212, 24 h; for MIC50: ATCC29212, E. faecalis ATCC 29212, 24 h, sigmoidal curve fitting
Experimental: as §1

| melting point [°C] | MIC90 [2] [µM] | MIC50 [2] [µM] | MIC90 [3] [µM] | MIC50 [3] [µM] | SMILES | IC50 at 24 h [1] [µM] | SI (selectivity index) [2] | SI (selectivity index) [3] |
| --- | --- | --- | --- | --- | --- | --- | --- | --- |
|  | 50 (≈ 15.9 µg/mL) | 29.4 (≈ 9.33 µg/mL) | 50 (≈ 15.9 µg/mL) | 34 (≈ 10.8 µg/mL) | Nc1nc(-c2cccc(NC(=O)c3cc4ccccc4[nH]3)c2)c[nH]1 [Compound 6d] | 42.3 | 1.4 | 1.2 |
| 237 to 241 | 50 | 11.9 |  |  | COc1ccc2[nH]c(C(=O)Nc3cccc(-c4c[nH]c(N)n4)c3)cc2c1.Cl [Compound 6f, 2-Amino-4-(3-(5-methoxy-1H-indole-2-carboxamido)phenyl)-1H-imidazol-3-ium chloride] | 32.2 | 2.7 |  |
| 255 to 260 |  |  |  |  | Cl.Nc1nc(-c2cccc(NC(=O)c3cc4cc(OC(F)(F)F)ccc4[nH]3)c2)c[nH]1 [Compound 6g, 2-Amino-4-(3-(5-(trifluoromethoxy)-1H-indole-2-carboxamido)phenyl)-1H-imidazol-3-ium chloride] |  |  |  |
| 201 to 204 | 50 | 7.2 |  |  | Cl.Nc1nc(-c2cccc(NC(=O)c3cc4cc(Cl)ccc4[nH]3)c2)c[nH]1 [Compound 6i, 2-Amino-4-(3-(5-chloro-1H-indole-2-carboxamido)phenyl)-1H-imidazol-3-ium chloride] | 21.7 | 3.0 |  |
| 202 to 205 | 50 | 22.1 | 100 | 27.3 | Cl.Nc1nc(-c2cccc(NC(=O)c3cc4cc(F)ccc4[nH]3)c2)c[nH]1 [Compound 6j, 2-Amino-4-(3-(5-fluoro-1H-indole-2-carboxamido)phenyl)-1H-imidazol-3-ium chloride] | 19.8 | 0.9 | 0.7 |
| 198 to 202 | 100 | 27.1 |  |  | Cl.Nc1nc(-c2cccc(NC(=O)c3cc4sccc4[nH]3)c2)c[nH]1 [Compound 6k, 4-(3-(4H-Thieno[3,2-b]pyrrole-5-carboxamido)phenyl)-2-amino-1H-imidazol-3-ium chloride] | 53.6 | 2.0 |  |
|  | 75 (≈ 24.9 µg/mL) | 10.8 (≈ 3.58 µg/mL) | 100 (≈ 33.1 µg/mL) | 54.2 (≈ 18 µg/mL) | CNc1nc(-c2cccc(NC(=O)c3cc4ccccc4[nH]3)c2)c[nH]1 [Compound 6l] | 52.3 | 4.9 | 1.0 |

More lines, now with the values behind:

| SMILES | melting point [°C] | MIC90 [2] [µM] | MIC50 [2] [µM] | MIC90 [3] [µM] | MIC50 [3] [µM] | IC50 at 24 h [1] [µM] | SI (selectivity index) [2] | SI (selectivity index) [3] |
| --- | --- | --- | --- | --- | --- | --- | --- | --- |
| COc1ccc2[nH]c(C(=O)Nc3cccc(-c4cn(C(=O)OC(C)(C)C)c(N)n4)c3)cc2c1 [Compound 5f, tert-Butyl 2-amino-4-(3-(5-methoxy-1H-indole-2-carboxamido)phenyl)-1H-imidazole-1-carboxylate] | 173 to 177 |  |  |  |  |  |  |  |
| CC(C)(C)OC(=O)n1cc(-c2cccc(NC(=O)c3cc4cc(OC(F)(F)F)ccc4[nH]3)c2)nc1N [Compound 5g, tert-Butyl 2-amino-4-(3-(5-(trifluoromethoxy)-1H-indole-2-carboxamido)phenyl)-1H-imidazole-1-carboxylate] | 185 to 187 |  |  |  |  |  |  |  |
| CC(C)(C)OC(=O)n1cc(-c2cccc(NC(=O)c3cc4cc(OCc5ccccc5)ccc4[nH]3)c2)nc1N [Compound 5h, tert-Butyl 2-amino-4-(3-(5-(benzyloxy)-1H-indole-2-carboxamido)phenyl)-1H-imidazole-1-carboxylate] | 140 to 143 |  |  |  |  |  |  |  |
| CC(C)(C)OC(=O)n1cc(-c2cccc(NC(=O)c3cc4cc(F)ccc4[nH]3)c2)nc1N [Compound 5j, tert-Butyl 2-amino-4-(3-(5-fluoro-1H-indole-2-carboxamido)phenyl)-1H-imidazole-1-carboxylate] | 189 to 192 |  |  |  |  |  |  |  |
| CC(C)(C)OC(=O)n1cc(-c2cccc(NC(=O)c3cc4sccc4[nH]3)c2)nc1N [Compound 5k, tert-Butyl 4-(3-(4H-thieno[3,2-b]pyrrole-5-carboxamido)phenyl)-2-amino-1H-imidazole-1-carboxylate] | 178 to 180 |  |  |  |  |  |  |  |
| CC(C)(C)OC(=O)n1cc(-c2cccc(NC(=O)c3cc4cc(O)ccc4[nH]3)c2)nc1N [Compound 7, tert-Butyl 2-Amino-4-(3-(5-hydroxy-1H-indole-2-carboxamido)phenyl)-1H-imidazole-1-carboxylate] | 192 to 196 | 100 (≈ 43.3 µg/mL) | 11.6 (≈ 5.03 µg/mL) |  |  | 94 |  |  |
| Cl.Nc1nc(-c2cccc(NC(=O)c3cc4cc(O)ccc4[nH]3)c2)c[nH]1 [Compound 8, 2-Amino-4-(3-(5-hydroxy-1H-indole-2-carboxamido)phenyl)-1H-imidazol-3-ium chloride] | 248 to 252 | 100 | 40.5 |  |  | > 100 | >2.5 |  |
| Nc1nc(-c2cccc(NC(=O)c3ccc[nH]3)c2)cn1Cc1ccccc1 [Compound 15, N-(3-(2-Amino-1-benzyl-1H-imidazol-4-yl)phenyl)-1H-pyrrole-2-carboxamide] | 229 to 232 |  |  |  |  |  |  |  |
| Nc1nc(-c2cccc(NCc3ccc[nH]3)c2)cn1Cc1ccccc1 [Compound 16, 4-(3-(((1H-Pyrrol-2-yl)methyl)amino)phenyl)-1-benzyl-1H-imidazol-2-amine] | 165 to 168 |  |  |  |  |  |  |  |
